Key:
SLC5A7 = details: read-out: KM of choline transport by SLC5A7; high-affinity choline transporter; ref [46]; cited from earlier work
SLC35E4 = biological target: T1, SLC35E4 (Homo sapiens, UniProt Q6ICL7); assay: Uptake ratio screen, SLC35E4-overexpressing HEK293 over empty vector cells; assay type: cell-based; set-up: by amplifying the entire gene-of-interest within the HEK293 genome via a long-range PCR; details: 2.5 μM, 2 min
T1 sequence (Q6ICL7 1-350): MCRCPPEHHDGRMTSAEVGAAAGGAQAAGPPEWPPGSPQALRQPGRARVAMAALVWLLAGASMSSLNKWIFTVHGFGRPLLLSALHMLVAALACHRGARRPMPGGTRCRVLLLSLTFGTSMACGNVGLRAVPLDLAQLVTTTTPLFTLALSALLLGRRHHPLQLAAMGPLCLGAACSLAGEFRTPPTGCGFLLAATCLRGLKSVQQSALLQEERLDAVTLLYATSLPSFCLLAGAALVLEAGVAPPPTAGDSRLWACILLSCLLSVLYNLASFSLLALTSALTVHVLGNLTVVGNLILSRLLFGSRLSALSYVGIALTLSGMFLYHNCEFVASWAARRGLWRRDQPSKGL
Method: (§1) Typically discussed substrates of the proton organic-cation antiporter ([14]) are highlighted in dark green in Figure 1.
(§2) In preparation for transport experiments, 24-well plates were pre-coated with poly-D-lysine (Sigma-Aldrich) and 300,000 cells were plated per well and incubated for 48 h. Firstly, the 24-well plate was placed on a heating plate at 37 °C, and the cells were washed with 37 °C HBSS^+ buffer (Hank’s balanced salt solution supplemented with 10 mM Hepes and adjusted to pH 7.4; Thermo Fisher Scientific). The substance-of-interest, which was diluted in 37 °C HBSS^+ to a desired concentration, was added to the cells for exactly 2 min. […] The uptake was stopped with ice-cold HBSS^+, and the 24-well plate was removed from the heating plate. The cells were washed twice with the cold HBSS^+ before they were lysed for 15 min with 80% (v/v) acetonitrile containing the respective internal standard for mass spectrometry. For variations in seeded cell numbers between the cell lines, several wells were lysed in RIPA buffer and used for total protein quantification using a bicinchoninic assay ([74]) and bovine serum albumin as calibration.
The intracellular drug concentrations after transport experiments were analyzed by high-performance liquid chromatography coupled to tandem mass spectrometry analysis. The HPLC consisted of a Shimadzu Nexera HPLC System with a SIL-30AC autosampler, a LC-30AD pump, a CTO-20AC column oven, and a CBM-20A controller (Shimadzu). The reverse-phase chromatography of compounds was accomplished with a Brownlee SPP RP-Amide column with 4.6 × 100 mm inner dimensions, a particle size of 2.7 μm, and a preceding Phenomenex C-18 guard column. […] After separation, the detection of substances was performed with an API 4000 tandem mass spectrometer (AB SCIEX, https://sciex.com/support/software-support/software-downloads), followed by quantification of results with the Analyst software (AB SCIEX, version 1.6.2). […]
(§3) Transport-mediated net uptake was determined as fold-increase of transporter-overexpressing cells over empty vector–transfected control cells.

SLC35F2 = biological target: T2, SLC35F2 (Homo sapiens, UniProt Q8IXU6); details: human
T2 sequence (Q8IXU6 1-374): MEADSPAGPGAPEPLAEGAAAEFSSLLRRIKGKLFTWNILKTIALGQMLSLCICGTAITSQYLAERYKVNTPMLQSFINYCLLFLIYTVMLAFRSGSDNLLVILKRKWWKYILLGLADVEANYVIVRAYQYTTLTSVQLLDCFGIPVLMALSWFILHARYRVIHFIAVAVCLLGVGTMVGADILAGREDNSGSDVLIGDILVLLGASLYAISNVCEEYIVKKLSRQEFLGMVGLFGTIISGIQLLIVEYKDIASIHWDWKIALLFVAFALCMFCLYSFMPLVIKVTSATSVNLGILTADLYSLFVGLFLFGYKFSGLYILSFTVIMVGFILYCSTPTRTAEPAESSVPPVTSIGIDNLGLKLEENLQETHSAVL

SLC44A1 = SLC44A1 (Homo sapiens, UniProt Q8WWI5)
SLC35F5 = biological target: T3, SLC35F5 (Homo sapiens, UniProt Q8WV83); assay: Uptake ratio screen, SLC35F5-overexpressing HEK293 over empty vector cells; assay type: cell-based; set-up: by amplifying the entire gene-of-interest within the HEK293 genome via a long-range PCR; details: 2.5 μM, 2 min
T3 sequence (Q8WV83 1-523): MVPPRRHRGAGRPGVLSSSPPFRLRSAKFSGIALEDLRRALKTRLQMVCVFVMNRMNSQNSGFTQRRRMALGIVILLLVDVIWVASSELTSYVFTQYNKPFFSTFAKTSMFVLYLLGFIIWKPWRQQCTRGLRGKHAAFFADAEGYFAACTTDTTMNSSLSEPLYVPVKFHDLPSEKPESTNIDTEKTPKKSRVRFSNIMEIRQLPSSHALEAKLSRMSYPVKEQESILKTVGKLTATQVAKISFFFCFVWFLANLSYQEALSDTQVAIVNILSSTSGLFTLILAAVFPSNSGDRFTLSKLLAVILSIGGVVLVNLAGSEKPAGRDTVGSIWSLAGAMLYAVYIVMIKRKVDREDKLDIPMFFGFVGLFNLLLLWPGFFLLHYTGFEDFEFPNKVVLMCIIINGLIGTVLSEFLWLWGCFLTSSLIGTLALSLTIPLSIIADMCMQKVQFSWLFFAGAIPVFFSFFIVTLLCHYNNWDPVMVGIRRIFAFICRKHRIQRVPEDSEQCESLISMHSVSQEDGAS
Method: as §1, §2
The intracellular drug concentrations after transport experiments were analyzed by high-performance liquid chromatography coupled to tandem mass spectrometry analysis. The HPLC consisted of a Shimadzu Nexera HPLC System with a SIL-30AC autosampler, a LC-30AD pump, a CTO-20AC column oven, and a CBM-20A controller (Shimadzu). The reverse-phase chromatography of compounds was accomplished with a Brownlee SPP RP-Amide column with 4.6 × 100 mm inner dimensions, a particle size of 2.7 μm, and a preceding Phenomenex C-18 guard column. The mobile phase was composed of an organic additive with acetonitrile:methanol 6:1 (v/v) in total concentrations between 3% and 50% (v/v) and 0.1% (v/v) formic acid in the aqueous component of the eluent. During separation, the column oven was held at 40 °C and the mobile phase was maintained at a flow rate of 300 or 400 μl/min. After separation, the detection of substances was performed with an API 4000 tandem mass spectrometer (AB SCIEX, https://sciex.com/support/software-support/software-downloads), followed by quantification of results with the Analyst software (AB SCIEX, version 1.6.2). The composition of chromatographic conditions, as well as detailed mass spectrometric detection parameters, are listed in Table S5.
as §3

Chain of SLC44A1 (Q8WWI5 whole entry): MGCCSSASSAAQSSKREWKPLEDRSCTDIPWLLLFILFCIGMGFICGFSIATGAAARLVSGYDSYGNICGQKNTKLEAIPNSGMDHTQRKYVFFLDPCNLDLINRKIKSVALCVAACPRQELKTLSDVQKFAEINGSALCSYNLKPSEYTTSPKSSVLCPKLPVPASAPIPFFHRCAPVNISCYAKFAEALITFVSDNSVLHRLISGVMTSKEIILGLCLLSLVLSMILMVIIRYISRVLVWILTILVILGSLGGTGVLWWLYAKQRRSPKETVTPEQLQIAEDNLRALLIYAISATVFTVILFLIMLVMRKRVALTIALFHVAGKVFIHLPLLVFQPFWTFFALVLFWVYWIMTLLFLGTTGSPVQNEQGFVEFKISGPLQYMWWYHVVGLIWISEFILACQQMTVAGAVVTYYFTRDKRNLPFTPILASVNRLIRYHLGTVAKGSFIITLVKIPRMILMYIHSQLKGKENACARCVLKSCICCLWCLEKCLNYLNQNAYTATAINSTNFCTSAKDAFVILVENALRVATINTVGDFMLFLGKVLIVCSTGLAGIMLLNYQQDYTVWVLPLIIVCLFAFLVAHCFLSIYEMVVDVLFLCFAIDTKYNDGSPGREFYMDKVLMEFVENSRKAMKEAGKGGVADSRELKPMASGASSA

Uptake by SLC35E4 (in words) (SLC35E4): moderate influx transport activity
Clint (±SEM) (SLC35F2): 2.48 (±1.47) μl × mg protein^-1 × min^-1
Clint (±SEM) (SLC44A1): 2.08 (±1.79) μl × mg protein^-1 × min^-1
Uptake by SLC35F5 (in words) (SLC35F5): highest uptake rates
Structure (SMILES): C[N+](C)(C)CCO [Choline]
Km (SLC5A7): 2000 nM

Source: PMC11406361, “Several orphan solute carriers functionally identified as organic cation transporters: Substrates specificity compared with known cation transporters” (The Journal of Biological Chemistry, 2024)
